Assay results: patent US20060105013A1, “Osteopontin-coated surfaces and methods of use” (priority 2000, published 2006)

Key:
[1] = test system: HOS cells; assay: Extracellular matrix mineralization (calcium content) of HOS cells on coated Ti disks; assay type: cell-based, human; details: ascorbate and β-glycerol phosphate, uncoated did not mineralize
Procedure: HOS cells were grown either on coated or uncoated titanium disks. Media was supplemented with ascorbate and b-glycerol phosphate to stimulate the mineralization of the extracellular matrix. After two weeks, media was removed and the cells were lysed with triton. Then, all soluble components were removed and calcium content was determined using quantitative, calorimetric determination at […] (Sigma Diagnostics Calcium). Basically, calcium reacts with o-cresolphthalein, a chromogenic agent that in an alkaline medium forms a purple colored complex. The intensity of the color, measured at […], is directly proportional to calcium concentration in the sample.
HOS cells were grown either on coated or uncoated titanium disks. Media was supplemented with ascorbate and β-glycerol phosphate. After two weeks, media was removed and the cells were lysed. Then, all soluble components were removed and calcium content was determined using quantitative, colorimetric determination at 575 nm (Sigma Diagnostics Calcium). All measurements were done in triplicates and reported as mean±Standard error in the mean.
When cultured in the presence of ascorbate and β-glycerol phosphate, HOS cells grown on coated Ti disks mineralized their extracellular matrix within 2 weeks (FIG. 5) in a manner similar to HOS cells cultured on plastic. […]

[2] = test system: HOS cells; assay: Proliferation of HOS cells on Ti disks coated with rhOPN (3H-thymidine incorporation); assay type: cell-based, human
Procedure: Cell proliferation was determined by the rate of ^3H-Thymidine incorporation into DNA. Cells were labeled with 10 μCi/ml of ^3H-Thymidine in DME media. After 6 hours, the cells were lysed in cold 10% trichloroacetic acid (TCA). The TCA insoluble material was collected and washed several times with 10% TCA, then resuspended in 0.5 N NaOH. ^3H-thymidine incorporation into TCA insoluble material was used as an index of cell proliferation. The material collected was mixed with scintillation liquid (Begman). The amount of radiation generated was compared between cells grown in titanium disks uncoated, and titanium disks coated with OPN.
Cell proliferation was determined by the rate of ^3H-Thymidine incorporation into DNA. Cells labeled with ^3H-Thymidine were seeded for 6 hours, then lysed with TCA. The TCA insoluble material was collected and resuspended in 0.5 N NaOH. ^3H-thymidine incorporation into TCA insoluble material was used as an index for cell proliferation. Rate of proliferation is expressed as cpm/1000 cells/6 h. Control group: 254,54, rhOPN group: 560,83. All measurements were done in triplicates and reported as mean±Standard error for the mean.
Since rhOPN promoted cell attachment to Ti disks, it was of interest to examine whether the protein had any effect on the proliferation of HOS grown on Ti disks.

Q: How did the “time within which HOS cells mineralized their extracellular matrix” value [1] turn out when “rhOPN: human recombinant phosphorylated form of osteopontin” was run?
A: Its value is no more than 2 weeks.

Q: And the Rate of proliferation [2]?
A: Its Rate of proliferation is 560,83 cpm/1000 cells/6 h.

Q: What about the “proliferation rate relative to cells grown on uncoated Ti disks” value [2] of the same substance?
A: Its value is “approximately twice”.
